Series [1] in a line: The drug is tested on Bifidobacterium ruminantium strain: fecal isolate for biotransformation. The drug concentrations were measured before and after a 12-h incubation by liquid-chromatography-coupled mass spectrometry (LC–MS). The settings on record: 2 µM.
The nature of series [2]: The drug is tested on Bacteroides vulgatus strain: ATCC8482 for biotransformation. The drug concentrations were measured before and after a 12-h incubation by liquid-chromatography-coupled mass spectrometry (LC–MS). The settings on record: phocaeicola vulgatus, 2 µM.
Series [3] can be described thus: The drug is tested on Providencia rettgeri strain: DSM1131 for biotransformation. The drug concentrations were measured before and after a 12-h incubation by liquid-chromatography-coupled mass spectrometry (LC–MS). The class given is ADME. The arrangement: dose 2 uM, timepoint 0 vs 12 hours. The settings on record: 2 µM.
The nature of series [4]: The drug is tested on Ruminococcus torques strain: ATCC27756 for biotransformation. The drug concentrations were measured before and after a 12-h incubation by liquid-chromatography-coupled mass spectrometry (LC–MS). In kind it is ADME. The settings on record: 2 µM. The arrangement: dose 2 uM, timepoint 0 vs 12 hours.
The conditions of series [5]: anaerostipes sp., 12 h, 2 µM.
Description: The drug is tested on Anaerostipes sp. strain: fecal isolate for biotransformation. The drug concentrations were measured before and after a 12-h incubation by liquid-chromatography-coupled mass spectrometry (LC–MS)
A short description of series [6]: The drug is tested on Enterococcus faecalis strain: V583 for biotransformation. The drug concentrations were measured before and after a 12-h incubation by liquid-chromatography-coupled mass spectrometry (LC–MS). The settings on record: 2 µM.
The nature of series [7]: The drug is tested on Eubacterium ventriosum strain: ATCC27560 for biotransformation. The drug concentrations were measured before and after a 12-h incubation by liquid-chromatography-coupled mass spectrometry (LC–MS). Further details: dose 2 uM, timepoint 0 vs 12 hours. The class given is ADME. The settings on record: 2 µM.
Series [8] is described as follows: The drug is tested on Coprococcus comes strain: ATCC27758 for biotransformation. The drug concentrations were measured before and after a 12-h incubation by liquid-chromatography-coupled mass spectrometry (LC–MS). The class given is ADME. The arrangement: dose 2 uM, timepoint 0 vs 12 hours. The settings on record: 2 µM.
The nature of series [9]: The drug is tested on Ruminococcus lactaris strain: ATCC29176 for biotransformation. The drug concentrations were measured before and after a 12-h incubation by liquid-chromatography-coupled mass spectrometry (LC–MS). The settings on record: 2 µM.
Series [10] can be described thus: The drug is tested on Odoribacter splanchnicus strain: fecal isolate for biotransformation. The drug concentrations were measured before and after a 12-h incubation by liquid-chromatography-coupled mass spectrometry (LC–MS). The settings on record: 2 µM.
A short description of series [11]: The drug is tested on Bacteroides uniformis strain: ATCC8492 for biotransformation. The drug concentrations were measured before and after a 12-h incubation by liquid-chromatography-coupled mass spectrometry (LC–MS). The settings on record: 2 µM.
The nature of series [12]: The drug is tested on Clostridium sporogenes strain: ATCC15579 for biotransformation. The drug concentrations were measured before and after a 12-h incubation by liquid-chromatography-coupled mass spectrometry (LC–MS). The settings on record: 2 µM.
A short description of series [13]: The drug is tested on Blautia hansenii strain: DSM20583 for biotransformation. The drug concentrations were measured before and after a 12-h incubation by liquid-chromatography-coupled mass spectrometry (LC–MS). The settings on record: 2 µM.
Series [14] in a line: The drug is tested on Bacteroides fragilis strain: HMW615 for biotransformation. The drug concentrations were measured before and after a 12-h incubation by liquid-chromatography-coupled mass spectrometry (LC–MS). The settings on record: 2 µM.
Series [15] is described as follows: The drug is tested on Bacteroides xylanisolvens strain: DSM18836 for biotransformation. The drug concentrations were measured before and after a 12-h incubation by liquid-chromatography-coupled mass spectrometry (LC–MS). The settings on record: 2 µM.
The conditions of series [16]: akkermansia muciniphila, 12 h, 2 µM.
Description: The drug is tested on Akkermansia muciniphila strain: ATCC BAA-835 for biotransformation. The drug concentrations were measured before and after a 12-h incubation by liquid-chromatography-coupled mass spectrometry (LC–MS)
For series [17] the following is noted: segatella copri, 12 h, 2 µM.
Description: The drug is tested on Prevotella copri strain: DSM18205 for biotransformation. The drug concentrations were measured before and after a 12-h incubation by liquid-chromatography-coupled mass spectrometry (LC–MS)
A short description of series [18]: The drug is tested on Dorea formicigenerans strain: ATCC27755 for biotransformation. The drug concentrations were measured before and after a 12-h incubation by liquid-chromatography-coupled mass spectrometry (LC–MS). The settings on record: 2 µM.
A short description of series [19]: The drug is tested on Alistipes indistinctus strain: DSM22520 for biotransformation. The drug concentrations were measured before and after a 12-h incubation by liquid-chromatography-coupled mass spectrometry (LC–MS). The settings on record: 2 µM.
For series [20] the following is noted: roseburia intestinalis, 12 h, 2 µM.
Description: The drug is tested on Roseburia intestinalis strain: L1-82 for biotransformation. The drug concentrations were measured before and after a 12-h incubation by liquid-chromatography-coupled mass spectrometry (LC–MS)

On to `CCCCC1=NC2(CCCC2)C(=O)N1Cc1ccc(-c2ccccc2-c2nnn[nH]2)cc1` [IRBESARTAN], for which the “Bacterial Biotransformation” value in [1] is recorded as “Compound metabolized”; in [2] it was “Compound metabolized”; in series [3], “Compound metabolized”; in series [4], “Compound metabolized”; in series [5], “Compound metabolized”; in [6], “Compound NOT metabolized”. Besides, the “Bacterial Biotransformation” value in [7] is reported as “Compound NOT metabolized”; in series [8], “Compound metabolized”; in [9] it was “Compound metabolized”; in [10], “Compound metabolized”; in [11], “Compound metabolized”; in series [12], “Compound NOT metabolized”. The “Bacterial Biotransformation” value is given as “Compound metabolized” in series [13]; “Compound metabolized” in series [14]; “Compound metabolized” in series [15]; “Compound NOT metabolized” in [16]; “Compound metabolized” in series [17]; “Compound metabolized” in series [18]. For the same compound, the “Bacterial Biotransformation” value in series [19] is recorded as “Compound metabolized”.
With `Cc1ccc(-c2nc3ccc(C)cn3c2CC(=O)N(C)C)cc1` [ZOLPIDEM], the “Bacterial Biotransformation” value in series [1], in series [2], in series [3], in series [4], in [5] and in [6] was “Compound NOT metabolized” in each case. Besides, the “Bacterial Biotransformation” value in series [20], in [7], in series [8], in [9], in series [10] and in [11] was “Compound NOT metabolized” in each case. Further, the “Bacterial Biotransformation” value in series [12], in series [13], in series [14], in [16], in series [17] and in [18] was “Compound NOT metabolized” in each case. Further, the “Bacterial Biotransformation” value in series [19] is recorded as “Compound NOT metabolized”.
For the compound `CC(C)NCC(O)c1ccc(NS(C)(=O)=O)cc1` (stereo not drawn) [SOTALOL], the “Bacterial Biotransformation” value in series [1], in series [2], in series [3], in [4], in series [5] and in series [6] was “Compound NOT metabolized” in each case. The “Bacterial Biotransformation” value in series [20] is listed as “Compound NOT metabolized”; in series [8], “Compound NOT metabolized”; in [9], “Compound NOT metabolized”; in series [10], “Compound NOT metabolized”; in series [11], “Compound metabolized”; in series [12] it was “Compound NOT metabolized”. In addition, the “Bacterial Biotransformation” value in [13] is “Compound NOT metabolized”; in series [14], “Compound metabolized”; in [15] it was “Compound NOT metabolized”; in series [16] it was “Compound NOT metabolized”; in series [17] it was “Compound NOT metabolized”; in [18], “Compound NOT metabolized”. Further, the “Bacterial Biotransformation” value in series [19] was “Compound NOT metabolized”.
With `CC(CN(C)C)CN1c2ccccc2CCc2ccccc21.O=C(O)/C=C\C(=O)O` (stereo not drawn) [TRIMIPRAMINE MALEATE], the “Bacterial Biotransformation” value in series [1], in series [2], in [3], in series [4], in [5] and in series [20] was “Compound NOT metabolized” throughout. Also, the “Bacterial Biotransformation” value in series [7], in series [8], in [9], in [10], in series [11] and in series [12] was “Compound NOT metabolized” in each case. In addition, the “Bacterial Biotransformation” value in series [13], in series [14], in series [15], in series [16], in series [18] and in series [19] was “Compound NOT metabolized” each time.
Take `CCCCc1nc(Cl)c(CO)n1Cc1ccc(-c2ccccc2-c2nn[nH]n2)cc1` [LOSARTAN]: the “Bacterial Biotransformation” value is listed as “Compound metabolized” in series [1]; “Compound metabolized” in [2]; “Compound NOT metabolized” in series [3]; “Compound NOT metabolized” in series [4]; “Compound NOT metabolized” in [5]; “Compound NOT metabolized” in [6]. In addition, the “Bacterial Biotransformation” value is recorded as “Compound NOT metabolized” in [7]; “Compound NOT metabolized” in series [8]; “Compound NOT metabolized” in series [9]; “Compound metabolized” in [10]; “Compound metabolized” in [11]; “Compound NOT metabolized” in series [12]. The “Bacterial Biotransformation” value in [13] is listed as “Compound NOT metabolized”; in series [14] it was “Compound metabolized”; in [15] it was “Compound metabolized”; in [16], “Compound metabolized”; in [17], “Compound NOT metabolized”; in series [18] it was “Compound NOT metabolized”. Besides, the “Bacterial Biotransformation” value in series [19] is listed as “Compound NOT metabolized”.
For the compound `C=CC[C@@H]1/C=C(\C)C[C@H](C)C[C@H](OC)[C@H]2O[C@@](O)(C(=O)C(=O)N3CCCC[C@H]3C(=O)O[C@H](/C(C)=C/[C@@H]3CC[C@@H](O)[C@H](OC)C3)[C@H](C)[C@@H](O)CC1=O)[C@H](C)C[C@@H]2OC.O` [TACROLIMUS], the “Bacterial Biotransformation” value in series [1] is listed as “Compound NOT metabolized”; in series [2], “Compound NOT metabolized”; in series [3] it was “Compound metabolized”; in series [4], “Compound NOT metabolized”; in series [5] it was “Compound metabolized”; in [20] it was “Compound metabolized”. Further, the “Bacterial Biotransformation” value is reported as “Compound NOT metabolized” in [7]; “Compound metabolized” in series [8]; “Compound metabolized” in series [9]; “Compound metabolized” in series [10]; “Compound metabolized” in [11]; “Compound metabolized” in series [12]. For the same compound, the “Bacterial Biotransformation” value in series [13] is given as “Compound metabolized”; in series [14], “Compound NOT metabolized”; in series [15], “Compound metabolized”; in series [16], “Compound metabolized”; in series [17] it was “Compound NOT metabolized”; in series [18] it was “Compound NOT metabolized”. Moreover, the “Bacterial Biotransformation” value in [19] is given as “Compound metabolized”.

The record behind these values is ChEMBL document CHEMBL5303573, “Mapping human microbiome drug metabolism by gut bacteria and their genes” (Nature, 2019).
